Experimental data reported in article PMC9781803, “Phenotypic and Target-Directed Screening Yields New Acaricidal Alternatives for the Control of Ticks” (Molecules, 2022).
Like-named read-outs stand apart in the source and are kept apart here. Marks after values point to notes of the source that are not given here.

What was measured:
[1] = test system: fully engorged females of the Mozo susceptible strain of R. microplus; test: Adult Immersion Test (AIT); type: in vivo; conditions: for % of Mortality AIT: compounds 1.5 mM, 15 min immersion, 14 days
Procedure: This essay was performed based on Drummond et al., 1973, as each group of 5 fully engorged females of the Mozo susceptible strain of R. microplus was immersed in 50 mL tubes containing 10 mL of compounds at different concentrations (0.5, 1, 1.5, 2, 3.5 mM) for 15 min in four replicates. Four negative control groups were used (DMSO 10%). After immersion, the fully engorged females were lightly dried with absorbent paper. They were then placed in 100 mm disposable Petri dishes with their respective identification, and immediately incubated at 27 °C in an atmosphere with relative humidity (RH) of 85-90% for 14 days. […] The tubes carrying the eggs were closed with hydrophilic cotton, and were returned to the incubator chamber under the same conditions until the eggs hatched. The reproductive efficacy, as well as % control of each compound on R. microplus, was calculated according to published reports. The results were verified in two independent experiments.

[2] = test system: R. microplus (Mozo strain) larvae; test: Larval Immersion Test (LIT); type: in vivo
Procedure: (§1) This assay was performed based on the method of Castro-Janer et al., 2011. Fully engorged females of R. microplus (Mozo strain) were incubated in Petri dishes at 27 °C and 85–90% relative humidity for 14 days. […] The tubes were incubated in the same conditions as described above. The larvae were ready for testing after 14 to 21 days from egg-hatching. For the test, the compounds were diluted in DMSO, and were later resuspended in distilled water, always using 15% DMSO of the final solution volume. The concentrations for the different compounds for the final immersion solution are 1 mg/mL for the extracts, and 1 mM for the compounds. […] For the immersion procedure, tubes containing the larvae were placed vertically, without the cotton plug, and the larvae were taken with a brush from the top of the tube, ensuring they were viable. A cluster with a diameter of 2 mm of larvae was collected with a brush, and was later immersed in each solution, as well as in both control solutions, for 10 min. After this time, the solutions were drained, and the larvae were placed in 8.5 cm × 7.5 cm Whatman No. 1 filter papers. The filters were folded in the middle of the 8.5 cm side, and closed with 3 bulldog clips, forming packets. These packets were incubated for 24 h, under the same conditions as described previously, and then the percent of mortality was determined, considering it as the % of the control.

[3] = target: R. microplus triosephosphate isomerase (RmTIM) (Rhipicephalus microplus, UniProt A8B3A8); test: biochemical; conditions: for IC50: RmTIM, read-out: IC50
Procedure: (§2) R. microplus triosephosphate isomerase (RmTIM) and Homo sapiens triosephosphate isomerase (HsTIM) were expressed in Escherichia coli, and purified as previously described in the literature. Protein concentration was determined by absorbance measurements at 280 nm for RmTIM (ε = 33440 M^−1cm^−1) and HsTIM (ε = 33460 M^−1cm^−1). Enzymatic activity was determined following the reaction of the conversion of glyceraldehyde-3-phosphate to dihydroxyacetone phosphate in a coupled enzyme assay using α-glycerol-phosphate dehydrogenase. The decrease in absorbance at 340 nm was recorded in a multiplate reader Varioskan™ Flash Multimode Reader (Thermo Scientific^TM, Waltham, MA, USA) at 25 °C. The reaction mixture ([…], pH 7.4) contained 100 mM triethanolamine, 10 mM EDTA, 0.2 mM NADH, 1 mM glyceraldehyde-3-phosphate, and 0.9 units of α-glycerol-phosphate dehydrogenase. The reaction was initiated by the addition of 5 ng/mL of the TIM of interest. For the inhibition studies (incubation mixture), TIM was incubated at a concentration of 5 mg/mL in a buffer of pH 7.4 containing 100 mM triethanolamine, 10 mM EDTA, and 10% DMSO at 25 °C for 1 h. The mixture also contained the compounds, dissolved in DMSO, at final concentrations of 10 and 100 μM. After 1 h, 10 μL of the incubation mixture was added to the reaction mixture, to a final volume of 100 μL in a 96-well plate. None of the molecules tested here affected the activity of α-glycerol-phosphate dehydrogenase (checked in situ on the reaction mixture inhibited, with the addition of fresh α-glycerol-phosphate dehydrogenase and running the measurement again). The IC50 value was taken as the concentration of drug needed to reduce the enzymatic activity by 50%, and was analyzed using OriginLab 8.5 Corporation, Northampton, MA, USA, sigmoidal regression (% of enzymatic activity vs. the logarithm of the compound concentration). The tests were performed in triplicate in two independent experiments.

[4] = target: T1, Homo sapiens triosephosphate isomerase (HsTIM) (Homo sapiens, UniProt P60174); test: Enzymatic activity of TIM, coupled enzyme assay; type: biochemical
T1 construct: made in house; host or cells: Escherichia coli
Procedure: as §2

[5] = test system: R. microplus; test: Acaricidal activity on R. microplus (LIT and AIT, overall statement); type: in vivo; conditions: LIT 1 mM and AIT 1.5 mM
Procedure: as §1, with “After immersion, the fully engorged females were lightly dried with absorbent paper. […] The tubes carrying the eggs were closed with hydrophilic cotton, and were returned to the incubator chamber under the same conditions until the eggs hatched. The reproductive efficacy, as well as % control of each compound on R. microplus, was calculated according to published reports. The results were verified in two independent experiments. This” for “This”, “2011.” for “2011. Fully engorged females of R. microplus (Mozo strain) were incubated in Petri dishes at 27 °C and 85–90% relative humidity for 14 days.”, “volume.” for “volume. The concentrations for the different compounds for the final immersion solution are 1 mg/mL for the extracts, and 1 mM for the compounds.”

[6] = test system: J774.1 murine macrophages; test: Cytotoxicity assay on murine macrophages (MTT); type: cell-based; conditions: for EC50: read-out: EC50 (µM) for Mammalian Cells; for IC50: J774.1, 48 h, read-out: IC50 (µM) Mammalian Cells
Procedure: J774.1 murine macrophages (ATCC, Rockville, MD, USA) were grown in a DMEM culture medium containing 4 mM L-glutamine, and supplemented with 10% FCS. The cells were seeded into a 96-well plate (5 × 10^4 cells in 200 µL culture medium) and incubated at 37 °C in a 5% CO2 atmosphere for 48 h, to allow cell adhesion before drug testing. Afterward, the cells were exposed for 48 h to the compounds (25–400 μM) or the vehicle (0.4% DMSO), and additional controls (cells in medium) were used in each test. Cell viability was then assessed by measuring the mitochondria-dependent reduction of MTT to formazan: for this, MTT in sterile PBS (0.2% glucose), pH 7.4, was added to the macrophages, to a final concentration of 0.1 mg/mL, and the cells were then incubated at 37 °C for 3 h. After removing the medium, the formazan crystals were dissolved in 180 μL of DMSO and 20 μL of MTT buffer (0.1 M glycine, 0.1 M NaCl, 0.5 mM EDTA, pH 10.5), and the absorbance was measured at 560 nm. The IC50 was defined as the drug concentration at which 50% of the cells were viable, relative to the control (no drug added), and was determined by analysis using OriginLab 8.5 Corporation, Northampton, MA, USA, sigmoidal regression (% of viable cells compared to the logarithm of the compound concentration). The tests were performed in triplicate in two independent experiments.

[7] = test system: embryonic cell line BME26; test: Phenotypic screening on BME26 cell cultures (MTT viability); type: cell-based, R. microplus; conditions: for inhibition at 100 µM: synthetic compounds at 100 μM, BME26, 24 h, read-out: % of Growth Inhibition; for IC50: BME26 cells, 24 h, MTT, read-out: IC50
Procedure: The embryonic cell line BME26 from R. microplus (Centro de Biotecnologia, Universidade Federal do Rio Grande do Sul, Porto Alegre, RS, Brazil) was grown as adherent monolayers in a complete medium, as described previously, which consisted of L-15B300 medium supplemented with 5% heat-inactivated Fetal Bovine Serum (FBS) (Gibco Co., Grand Island, NY), 10% Tryptose Phosphate Broth (TPB) (BD), penicillin (100 U/mL), streptomycin ([…], Gibco Co., Grand Island, NY, USA), and 0.1% bovine lipoprotein concentrate (ICN), (pH 7.2). The suspension of embryonic BME26 cells from R. microplus was seeded into 24-well plates (5 × 10^5 cells/well) to a final volume of 500 μL in a complete medium, and allowed to attach. After 24 h incubation at 34 °C, the extracts (100 µg/mL final concentration) and the compounds were added to the final concentrations indicated (1–100 µM), and 0.05% dimethylsulfoxide (DMSO) was used in the negative control wells. After 24 h of treatment, 50 μL of 3-(4,5-dimethylthiazol-2-yl)-2,5-diphenyltetrazolium bromide (MTT) prepared in serum-free medium (5 mg/mL) was added to each well. The media were discarded after 2 additional hours of incubation, and 1 mL of acid-isopropyl alcohol (0.15% HCl in isopropyl alcohol) was added to dissolve the formazan crystals. The mixture was transferred to 1.5 mL tubes, centrifuged at 6000× g for 15 min, and the clear supernatant was collected in new tubes for absorbance measurement at 570 nm using quartz cuvettes in a UVmini-1240 UV–vis spectrophotometer (Shimadzu, Japan). Absorbance values of the control treatment were used for normalization (100% viability). The activity was determined by analysis using OriginLab8.5® sigmoidal regression (% of viable cells compared to the logarithm of the compound concentration). The half-maximal inhibitory concentration (IC50), defined as the drug concentration at which 50% of the cells were viable relative to the control (no drug added), was used as a measurement of activity. These experiments were performed in triplicate for each compound.

[8] = test system: ticks of the population of multiresistant field; test: Adult immersion test on multiresistant field population (Table S3); type: in vivo, R. microplus; conditions: preliminary study
[9] = compounds 1.0 mM, 10 min immersion, 24 h
[10] = 1 h incubation, read-out: % Inhibition of Enzymatic Activity of RmTIM
[11] = Mus musculus, J774.1, cytotoxicity

T1 sequence (P60174 whole entry): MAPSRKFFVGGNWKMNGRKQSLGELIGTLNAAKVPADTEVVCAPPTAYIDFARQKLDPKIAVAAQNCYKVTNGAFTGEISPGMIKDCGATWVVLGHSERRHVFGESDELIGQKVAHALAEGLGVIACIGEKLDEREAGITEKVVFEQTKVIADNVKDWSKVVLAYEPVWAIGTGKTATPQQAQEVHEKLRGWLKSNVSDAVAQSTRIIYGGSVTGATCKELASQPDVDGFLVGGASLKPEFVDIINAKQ
R. microplus triosephosphate isomerase (RmTIM), sequence (A8B3A8 entry or part of it): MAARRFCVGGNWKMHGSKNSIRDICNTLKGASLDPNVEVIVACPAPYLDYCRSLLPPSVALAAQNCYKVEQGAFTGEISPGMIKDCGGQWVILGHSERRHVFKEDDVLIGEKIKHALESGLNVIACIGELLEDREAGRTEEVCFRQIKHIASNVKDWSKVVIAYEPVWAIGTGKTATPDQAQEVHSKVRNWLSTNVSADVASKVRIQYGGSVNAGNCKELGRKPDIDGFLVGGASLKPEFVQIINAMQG

Compound | IC50 [3] [µM] | inhibition at 10 µM [3, 10] [%] | inhibition at 10 µM [4] [%] | % of Mortality LIT [2, 9] [%] | acaricidal activity (in words) [5] | EC50 [6, 11] [µM] | inhibition at 100 µM [7] [%] | also measured
Cc1ccc(/N=C/N(C)/C=N/c2ccc(C)cc2C)c(C)c1 [Amitraz, reference compound] | – | – | – | 100 | – | – | – | % of Mortality AIT [1]: 100%
COc1cc(/C=C/c2cc(/C=C/[c-]3cccc3)[nH]n2)ccc1O.[Fe+2].c1cc[cH-]c1 [Mar106, 2-Methoxy-4-((E)-2-(5-((E)-ferrocenylvinyl)-1H-pyrazol-3-yl)vinyl)phenol] | 25 ± 4 | – | – | – | did not show reproducible acaricidal activity | – | – | % Inhibition of Enzymatic Activity of RmTIM ([3]; at 100 µM (**), 1 h incubation): 69 ** %; % Inhibition of Enzymatic Activity of HsTIM at 10 µM ([4]; at 10 µM): 0%; EC50 ([6]; cytotoxicity): > 25 µM
O=C(/C=C/c1ccccn1)c1ccccc1O [compound 885] | – | – | – | 100 ± 9 | acaricidal potential against R. microplus similar to Amitraz | – | 91 | acaricidal activity on multiresistant strain (in words) [8]: had acaricidal activity; LC50 ([1]; adult females): 1000 µM; % of Mortality AIT [1]: 100 ± 9%; IC50 [7]: 17 ± 4 µM; IC50 ([6]; Mus musculus): > 50 µM
Cc1c(/C=C/C(=O)c2ccccc2O)no[n+]1[O-] [compound 1253] | – | – | – | 50 ± 8 | acaricidal potential | – | 95 | IC50 [7]: 12 ± 1 µM; IC50 ([6]; Mus musculus): > 50 µM
Ivermectin [reference compound] | – | – | – | – | – | – | – | % of Mortality LIT ([2]; commercial ivermectin control at 0.082 mM): 100%

Now from value to compound, other results behind:

IC50 [3] [µM] | inhibition at 10 µM [3, 10] [%] | inhibition at 10 µM [4] [%] | Compound | % of Mortality LIT [2, 9] [%] | acaricidal activity (in words) [5] | EC50 [6, 11] [µM] | inhibition at 100 µM [7] [%] | also measured
< 10 | 88 | 0 | O=C1/C(=C/c2ccccc2)CCC/C1=C\c1ccccc1 [compound 799] | – | did not show reproducible acaricidal activity | > 50 | – | –
< 10 | 95 | 0 | O=C1/C(=C2\Nc3ccccc3C2=O)Nc2ccccc21 [compound 879] | – | did not show reproducible acaricidal activity | > 50 | 9 | –
23 ± 2 | – | 0 | Clc1ccc(-c2csc(/N=C/C=C/c3ccco3)n2)cc1 [compound 910] | – | did not show reproducible acaricidal activity | > 50 | – | inhibition at 100 µM ([3]; at 100 µM (**), 1 h incubation, read-out: % Inhibition of Enzymatic Activity of RmTIM): 60%
< 10 | 82 | 0 | O=C(N/N=C/C=C/c1ccco1)c1ccccn1 [compound 1367] | – | did not show reproducible acaricidal activity | > 50 | – | –
< 10 | 100 | 0 | O=C(/C=C/c1ccsc1)/C=C/c1ccsc1 [compound 1387] | – | did not show reproducible acaricidal activity | > 50 | – | –
